Assays:
Assay in all cases: relative viability (nuclei count vs DMSO), 5 days (fraction); higher = more cells survive
Dabrafenib + Lapatinib = compound: CC(C)(C)c1nc(-c2cccc(NS(=O)(=O)c3c(F)cccc3F)c2F)c(-c2ccnc(N)n2)s1 [Dabrafenib] + CS(=O)(=O)CCNCc1ccc(-c2ccc3ncnc(Nc4ccc(OCc5cccc(F)c5)c(Cl)c4)c3c2)o1 [Lapatinib] (partner 2 µM)
In short: (§1)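 A single step with final 0.05% Triton X-100, 1% formaldehyde and 1 ug/ml Hoechst fixed the cells and stained nuclei 5 days after treatment. Lung cancer cell lines in 1536-well plates had been treated by pin tool the day after seeding with one drug alone or a fixed anchor-drug dose plus five library-drug doses (not always all listed) in √10 steps, and nuclei were counted on 4× images. Relative viability is the ratio of nuclei in treated wells to nuclei in vehicle wells, taken as the median of duplicate plates.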

VX-702 + Alpelisib = compound: NC(=O)c1ccc(N(C(N)=O)c2c(F)cccc2F)nc1-c1ccc(F)cc1F [VX-702] + Cc1nc(NC(=O)N2CCC[C@H]2C(N)=O)sc1-c1ccnc(C(C)(C)C(F)(F)F)c1 [Alpelisib] (partner 2 µM)
In short: as §1

VX-702 + Lapatinib = compound: NC(=O)c1ccc(N(C(N)=O)c2c(F)cccc2F)nc1-c1ccc(F)cc1F [VX-702] + CS(=O)(=O)CCNCc1ccc(-c2ccc3ncnc(Nc4ccc(OCc5cccc(F)c5)c(Cl)c4)c3c2)o1 [Lapatinib] (partner 2 µM)
In short: as §1

Dabrafenib + Pictilisib = compound: CC(C)(C)c1nc(-c2cccc(NS(=O)(=O)c3c(F)cccc3F)c2F)c(-c2ccnc(N)n2)s1 [Dabrafenib] + CS(=O)(=O)N1CCN(Cc2cc3nc(-c4cccc5[nH]ncc45)nc(N4CCOCC4)c3s2)CC1 [Pictilisib] (partner 1 µM)
In short: as §1

| Cell Line | relative viability (Dabrafenib + Lapatinib; first compound 0.003 µM) | relative viability (Dabrafenib + Lapatinib; first compound 0.009487 µM) | relative viability (Dabrafenib + Lapatinib; first compound 0.03 µM) | relative viability (Dabrafenib + Lapatinib; first compound 0.09487 µM) | relative viability (Dabrafenib + Lapatinib; first compound 0.3 µM) | relative viability (VX-702 + Alpelisib; first compound 0.02 µM) | relative viability (VX-702 + Alpelisib; first compound 0.2 µM) | relative viability (VX-702 + Alpelisib; first compound 0.6325 µM) | relative viability (VX-702 + Alpelisib; first compound 2 µM) | relative viability (VX-702 + Lapatinib; first compound 0.02 µM) | relative viability (VX-702 + Lapatinib; first compound 0.2 µM) | relative viability (VX-702 + Lapatinib; first compound 0.6325 µM) | relative viability (VX-702 + Lapatinib; first compound 2 µM) | relative viability (Dabrafenib + Pictilisib; first compound 0.003 µM) | relative viability (Dabrafenib + Pictilisib; first compound 0.009487 µM) | relative viability (Dabrafenib + Pictilisib; first compound 0.03 µM) | relative viability (Dabrafenib + Pictilisib; first compound 0.09487 µM) | relative viability (Dabrafenib + Pictilisib; first compound 0.3 µM) |
| --- | --- | --- | --- | --- | --- | --- | --- | --- | --- | --- | --- | --- | --- | --- | --- | --- | --- | --- |
| NCI-H1944 | 0.835 | 0.924 | 0.613 | 0.898 | 0.788 | 0.76 | 0.775 | 0.818 | 0.605 | 0.903 | 0.774 | 0.878 | 0.789 | 0.36 | 0.343 | 0.284 | 0.438 | 0.368 |
| NCI-H1975 | 0.914 | 0.858 | 0.881 | 0.84 | 0.786 | 0.738 | 0.664 | 0.716 | 0.869 | 0.925 | 1.03 | 0.961 | 1.22 | 0.267 | 0.308 | 0.27 | 0.257 | 0.234 |
| NCI-H1993 | 0.696 | 0.729 | 0.754 | 0.713 | 0.882 | 0.665 | 0.74 | 0.628 | 0.674 | 0.811 | 0.827 | 0.827 | 0.743 | 0.811 | 0.789 | 0.723 | 0.625 | 0.728 |
| NCI-H2009 | 0.311 | 1 | 0.872 | 0.606 | 0.484 | 1.21 | 1.22 | 1.24 | 1.35 | 1.14 | 0.931 | 1.01 | 1.08 | 0.292 | 0.797 | 0.475 | 0.334 | 0.346 |
| NCI-H2023 | 0.617 | 1.09 | 0.979 | 0.79 | 0.961 | 0.55 | 0.606 | 0.483 | 0.561 | 0.729 | 0.504 | 0.712 | 0.977 | 0.171 | 0.271 | 0.207 | 0.283 | 0.267 |
| NCI-H2085 | 0.694 | 0.821 | 0.58 | 0.74 | 0.784 | 1.08 | 0.838 | 0.959 | 0.955 | 0.81 | 0.739 | 0.767 | 0.808 | 0.381 | 0.481 | 0.328 | 0.452 | 0.462 |
| NCI-H2087 | 0.689 | 1.08 | 0.769 | 0.77 | 0.785 | 1.2 | 1.04 | 1.04 | 1.19 | 1.28 | 1.1 | 1.1 | 1.16 | 0.38 | 0.819 | 1.08 | 0.728 | 0.703 |
| NCI-H2126 | 0.735 | 0.783 | 0.75 | 0.842 | 0.89 | 0.708 | 0.708 | 0.718 | 0.698 | 0.752 | 0.763 | 0.74 | 0.824 | 0.46 | 0.514 | 0.529 | 0.543 | 0.595 |
| NCI-H2170 | 0.263 | 0.265 | 0.268 | 0.291 | 0.311 | 0.801 | 0.61 | 0.757 | 0.869 | 0.278 | 0.284 | 0.273 | 0.299 | 0.251 | 0.394 | 0.293 | 0.311 | 0.323 |
| NCI-H2228 | 0.856 | 1.2 | 1.01 | 1.01 | 1.14 | 0.826 | 0.64 | 0.753 | 0.856 | 0.851 | 1.04 | 1.04 | 1.33 | 0.331 | 0.386 | 0.415 | 0.316 | 0.483 |

Reference: the supplement of paper PMC10307832
